# Data: patent publication US4368267A, “Epoxidation of lower α-olefins” (priority 1980, dated 1983)
# Structures can show the parent of a compound that is named as a salt.
# How the values were obtained:
# [1] = test system: P(40), P(80), S(80) cell fractions of Methylosinus sp. (CRL-15, NRRL B-11,202); test: Oxidation of n-alkanes and n-alkenes by cell fractions; type: biochemical; details: for % Inhibition, Propylene-Epoxidizing Activity / % Inhibition, Methane-Hydroxylating Activity / Methane-Oxidizing Activity in presence of metal / Propylene-Oxidizing Activity in presence of metal: P(40) fraction; for % Inhibition, Propylene-Epoxidizing Activity / % Inhibition, Methane-Hydroxylating Activity: inhibitor 10^-3 M; for % Inhibition, Propylene-Epoxidizing Activity: uninhibited rate 4.1; for % Inhibition, Methane-Hydroxylating Activity: uninhibited rate 4.5; for Rate of Product Formation (substrate to 1,2-epoxide or alcohol): P(40) particulate fraction, 30° C.; for Methane-Oxidizing Activity in presence of metal / Propylene-Oxidizing Activity in presence of metal: metal 10^-3 M; for Methane-Oxidizing Activity in presence of metal: control 4.0; for Propylene-Oxidizing Activity in presence of metal: control […]
# Procedure: Cells were washed twice with 25 mM potassium phosphate buffer, pH 7.0 containing 5 mM MgCl2. Cells were suspended in the same buffer. The cell suspensions at 4° C. were disintegrated by a single passage through a French Pressure cell (15,000 lb./in.^2) and centrifuged at 5000×g. for 15 min. to remove unbroken bacteria. The supernatant solution (crude extract) was then centrifuged at 40,000×g. for 30 min., yielding particulate P(40) and soluble S(40) fractions. The S(40) fraction was subsequently centrifuged at 80,000×g. for 60 min., yielding particulate P(80) and soluble S(80) fractions. The particulate fractions [P(40) and P(80)] were suspended in 25 mM potassium phosphate buffer, pH 7.0, containing 5 mM MgCl2 and homogenized at 4° C.
# […] The reaction mixtures contained in 1.0 ml: 150 mM potassium phosphate buffer, pH 7.0 containing 5 mM MgCl2, 0.6 ml; […] NADH, and cellular fraction.
# Reaction mixtures were contained in 10 ml vials at 4° C. Vials were sealed with rubber caps. The gaseous phase in the vials was removed using vacuum and then was replaced with a gas mixture of methane or propylene and oxygen at a 1:1, v/v ratio. Oxidation of other gaseous n-alkanes and n-alkenes was examined as described above. For liquid substrates, 10 μl of substrate was used directly.
# The products of epoxidation of n-alkenes and hydroxylation of n-alkanes were assayed by flame ionization gas chromatography using a stainless steel column (12'×1/8") packed with 10% Carbowax 20 M on 80/100 Chromosorb W and Porapak Q column. The column temperature was maintained isothermally at 120° C. The carrier gas flow rate was 30 ml/min. of helium. The various products were identified by retention time comparisons and co-chromatography with authentic standards.
# Specific activities were expressed as μ moles of products formed per hour per mg. protein. Concentrations of protein in various fractions were determined by the method of Lowry et al., J. Biol. Chem. 193: 265-275 (1951).
# [2] = test system: Methylosinus trichosporium OB3b (NRRL B-11,196); test: Methane hydroxylation and alkene epoxidation by washed cell suspensions; type: cell-based; details: methane-grown washed cells, 30° C.
# Procedure: (§1) The pH of the nutrient medium was adjusted to 7.0 by the addition of acid or base and 50 ml aliquots of the nutrient medium was charged into a plurality of 300 ml shake flasks. […] The isolates had been maintained on agar plates under an atmosphere of methane and air having a 1:1 v/v gas ratio which had been transferred every two weeks. The gaseous phase of the inoculated flasks was then replaced with a gas mixture comprised of methane and air having a ratio of 1:1 on a v/v basis. The inoculated flasks were sealed air tight and were incubated on a rotary shaker of orbital radius 2.5 cm at 250 rpm and at 30° C. for two days until the turbidity in the medium had developed.
# (§2) The cells were harvested by centrifugation at 10,000 ×g at 4° C. for 30 minutes. The cell pellet was washed twice with a 0.15 M phosphate buffer at a pH of 7.0 (containing 0.002 M MgCl2). The washed cells were then suspended in a 0.15 M phosphate buffer at pH 7.0.
# […] The gaseous phase of the vials was removed with vacuum and then was replaced with a gas mixture of alkene and oxygen at a 1:1 v/v ratio. It was then incubated at 30° C. on a rotary shaker at 300 rpm. Samples of product (3 μl) were withdrawn periodically with a microsyringe and the products were analyzed by gas chromatography (ionization flame detector column).
# [3] = test system: Methylosinus sporium 5 (NRRL B-11,197); test: as above; type: cell-based; details: methane-grown washed cells, 30° C.
# Procedure: as §1, §2
# (§3) A 0.5 ml aliquot of each washed cell suspension (2 mg cells) was put into 10 ml vials at 4° C. which were sealed with a rubber cap. […] It was then incubated at 30° C. on a rotary shaker at 300 rpm. Samples of product (3 μl) were withdrawn periodically with a microsyringe and the products were analyzed by gas chromatography (ionization flame detector column).
# [4] = test system: Methylocystis parvus OBBP (NRRL B-11,198); test: as above; type: cell-based; details: methane-grown washed cells; 0.2 g/100 ml dry weight of cells
# Procedure: as §1, with “The gaseous phase of the inoculated flasks was then replaced with a gas mixture comprised of methane and air having a ratio of 1:1 on a v/v basis.” left out
# as §2
# (§4) A 0.5 ml aliquot of each washed cell suspension (2 mg cells) was put into 10 ml vials at 4° C. which were sealed with a rubber cap. The gaseous phase of the vials was removed with vacuum and then was replaced with a gas mixture of alkene and oxygen at a 1:1 v/v ratio. It was then incubated at 30° C. on a rotary shaker at 300 rpm. Samples of product (3 μl) were withdrawn periodically with a microsyringe and the products were analyzed by gas chromatography (ionization flame detector column).
# [5] = test system: Methylomonas methanica S1 (NRRL B-11,199); test: as above; type: cell-based; details: methane-grown washed cells; 0.2 g/100 ml dry weight of cells
# Procedure: as §1, with “The gaseous phase of the inoculated flasks was then replaced with a gas mixture comprised of methane and air having a ratio of 1:1 on a v/v basis.” left out
# as §2, §4
# [6] = test system: Methylomonas albus BG8 (NRRL B-11,200); test: as above; type: cell-based; details: methane-grown washed cells; 0.2 g/100 ml dry weight of cells
# Procedure: as §1, §2, §4
# [7] = test system: Methylobacter capsulatus Y (NRRL B-11,201); test: Methane hydroxylation and propylene epoxidation by washed cell suspensions; type: cell-based; details: Propylene + 5 mM stimulator compound
# Procedure: (§5) The pH of the nutrient medium was adjusted to 7.0 by the addition of acid or base and 50 ml aliquots of the nutrient medium was charged into a plurality of 300 ml shake flasks. The shake flasks were inoculated with an inoculating loop of cells from an agar plate containing homogeneous colonies of the microorganisms on the plate (the purity of the isolates were confirmed by microscopic examination). The isolates had been maintained on agar plates under an atmosphere of methane and air having a 1:1 v/v gas ratio which had been transferred every two weeks. The gaseous phase of the inoculated flasks was then replaced with a gas mixture comprised of methane and air having a ratio of 1:1 on a v/v basis. The inoculated flasks were sealed air tight and were incubated on a rotary shaker of orbital radius 2.5 cm at 250 rpm and at 30° C. for two days until the turbidity in the medium had developed.
# as §2, §3
# Several experiments were carried out using a plurality of compounds capable of generating the necessary reducing power (NADH2 or NADPH2) required for the epoxidation of alkenes or dienes. […]
# [8] = test system: Methylobacterium organophilum (CRL 26, NRRL B-11,222); test: Epoxidation/hydroxylation by washed cell suspensions; type: cell-based; details: Propylene + 5 mM stimulator compound
# Procedure: as §5, §2, §4
# (§6) Several experiments were carried out using a plurality of compounds capable of generating the necessary reducing power (NADH2 or NADPH2) required for the epoxidation of alkenes or dienes. These experiments were carried out using cell suspensions of methane grown methylotrophs using the procedure as described in Example 1 except that a stimulator compound was added to the reaction medium.
# [9] = test system: Methylococcus capsulatus strain MC; test: Stimulation of propylene epoxidation in cell suspensions; type: cell-based; details: Propylene + 5 mM stimulator compound
# Procedure: as §5, §2, §4, §6
# [10] = test system: Methylococcus capsulatus (CRL M1, NRRL B-11,219); test: Oxidation/epoxidation by washed cell suspensions; type: cell-based; details: methane-grown washed cells
smiles,measurement,setting,value
"c1ccc(-c2ccccn2)nc1 [α,α-Bipyridyl, reference compound]","% Inhibition, Propylene-Epoxidizing Activity",[1],98%
same,"% Inhibition, Methane-Hydroxylating Activity",[1],99%
C=C [Ethylene],"Conversion rate, ethylene to ethylene oxide",[2],1.9 μmole/hr/mg protein
same,"Conversion rate, ethylene to ethylene oxide",[3],1.1 μmole/hr/mg protein
same,"Conversion rate, ethylene to ethylene oxide",[4],0.9 μmole/hr/mg protein
same,"Conversion rate, ethylene to ethylene oxide",[5],0.95 μmole/hr/mg protein
same,"Conversion rate, ethylene to ethylene oxide",[6],1.2 μmole/hr/mg protein
same,"Rate of Product Formation (substrate to 1,2-epoxide or alcohol)",[1],1.27 μmoles/hr/mg of protein
CC [Ethane],"Rate of Product Formation (substrate to 1,2-epoxide or alcohol)",[1],3.2 μmoles/hr/mg of protein
C=CCCCC [Hexene-1],"Conversion rate, hexene-1 to 1,2-epoxyhexane",[2],0 μmole/hr/mg protein
same,"Conversion rate, hexene-1 to 1,2-epoxyhexane",[2]; listed as hexene-1,did not produce any detectable epoxide
same,"Conversion rate, hexene-1 to 1,2-epoxyhexane",[3],0 μmole/hr/mg protein
same,"Conversion rate, hexene-1 to 1,2-epoxyhexane",[3]; listed as hexene-1,did not produce any detectable epoxide
CCO [Ethanol],Rate of Product Formation (Propylene Oxide),[7],370 nmoles/hr/mg protein
same,Rate of Product Formation (Propylene Oxide),[8],124 nmoles/hr/mg protein
same,Rate of Product Formation (Propylene Oxide),[9],462 nmoles/hr/mg protein
[Cl][Cu] [Cuprous Chloride],Methane-Oxidizing Activity in presence of metal,[1],7.2 μmoles/hr/mg protein
same,Propylene-Oxidizing Activity in presence of metal,[1],9.2 μmoles/hr/mg protein
"c1cnc2c(c1)ccc1cccnc12 [1,10-phenanthroline, reference compound]","% Inhibition, Propylene-Epoxidizing Activity",[1],93%
same,"% Inhibition, Methane-Hydroxylating Activity",[1],90%
COC [Dimethylether],Rate of Product Formation (Propylene Oxide),[8],50 nmoles/hr/mg protein
COC=O [Methyl Formate],Rate of Product Formation (Propylene Oxide),[7],99 nmoles/hr/mg protein
same,Rate of Product Formation (Propylene Oxide),[8],61 nmoles/hr/mg protein
same,Rate of Product Formation (Propylene Oxide),[9],390 nmoles/hr/mg protein
CCCO [Propanol],Rate of Product Formation (Propylene Oxide),[8],66 nmoles/hr/mg protein
same,Rate of Product Formation (Propylene Oxide),[9],243 nmoles/hr/mg protein
CC(C)C [Isobutane],"Reaction Rate, isobutane to isobutyraldehyde",[10],0.072 μmoles/hr/mg biomass
same,"Reaction Rate, isobutane to tertiary butanol",[10],0.051 μmoles/hr/mg biomass
O=S(=O)([O-])[O-].[Cu+2] [Cupric Sulfate],Methane-Oxidizing Activity in presence of metal,[1],7.1 μmoles/hr/mg protein
same,Propylene-Oxidizing Activity in presence of metal,[1],9.0 μmoles/hr/mg protein
COC(C)=O [Methyl Acetate],Rate of Product Formation (Propylene Oxide),[8],5.0 nmoles/hr/mg protein
same,Rate of Product Formation (Propylene Oxide),[9],21 nmoles/hr/mg protein
"CC(C)(C)C [2,2-dimethylpropane]","Reaction Rate, 2,2-dimethylpropane to 2,2-dimethylpropanol",[10],0.085 μmoles/hr/mg biomass
